According to US20250313563A1, “GLYCOGEN SYNTHASE KINASE 3 INHIBITORS AND USES THEREOF” (The Broad Institute, Inc., priority 2022, published 2025):
Like-named read-outs stand apart in the source and are kept apart here.

Tests used:
[1] = target: GSK3b (GST-full length GSK3b) (Homo sapiens (Human), UniProt P49841); assay: GSK3b TR-FRET kinase assay; format: biochemical
Outline: (§1)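 Full-length GST-tagged human enzyme (1 nM) is exposed to test compound for 30 min before substrates are added. Phosphorylation of a primed biotinylated glycogen synthase peptide proceeds 100 min at room temperature at low ATP (4 μM α; 2 μM β) or high ATP (1 mM). Product is quantified by TR-FRET.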

[2] = target: GSK3α (GST-full length GSK3α) (Homo sapiens (Human), UniProt P49840); assay: GSK3α TR-FRET kinase assay; format: biochemical
Outline: as §1

[3] = 1 nM GSK3b, 2 μM ATP, 30 minute preincubation, Table 16, read-out: GSK3-B TR-FRET BIOCHEMICAL (TR-FRET)
[4] = GSK3-B (TR-FRET 1 mM ATP), GMean, IC50, 1 mM ATP, geometric mean
[5] = 1 nM GSK3α, 4 μM ATP, 30 minute preincubation, Table 16, read-out: GSK3-A TR-FRET BIOCHEMICAL (TR-FRET)
[6] = GSK3-A (TR-FRET 1 mM ATP), GMean, IC50, 1 mM ATP, geometric mean
[7] = 1 nM GSK3b, 2 μM ATP, 30 minute preincubation, Table 16, read-out: GSK3-B TR-FRET BIOCHEMICAL (TR-FRET), IC50
[8] = 1 nM GSK3α, 4 μM ATP, 30 minute preincubation, Table 16, read-out: GSK3-A TR-FRET BIOCHEMICAL (TR-FRET), IC50
[9] = 1 nM GSK3b, 2 μM ATP, 30 minute preincubation, geometric mean, read-out: GSK3-B TR-FRET BIOCHEMICAL (TR-FRET), GMean, IC50
[10] = read-out: GSK3-B (TR-FRET 1 mM ATP), GMean, IC50, 1 mM ATP, geometric mean
[11] = 1 nM GSK3α, 4 μM ATP, 30 minute preincubation, geometric mean, read-out: GSK3-A TR-FRET BIOCHEMICAL (TR-FRET), GMean, IC50
[12] = read-out: GSK3-A (TR-FRET 1 mM ATP), GMean, IC50, 1 mM ATP, geometric mean
[13] = 1 nM GSK3b, 2 μM ATP, 30 minute preincubation, read-out: GSK3-B TR-FRET BIOCHEMICAL (TR-FRET), IC50
[14] = 1 nM GSK3α, 4 μM ATP, 30 minute preincubation, read-out: GSK3-A TR-FRET BIOCHEMICAL (TR-FRET), IC50

Sequence of GSK3b (GST-full length GSK3b) (P49841 whole entry): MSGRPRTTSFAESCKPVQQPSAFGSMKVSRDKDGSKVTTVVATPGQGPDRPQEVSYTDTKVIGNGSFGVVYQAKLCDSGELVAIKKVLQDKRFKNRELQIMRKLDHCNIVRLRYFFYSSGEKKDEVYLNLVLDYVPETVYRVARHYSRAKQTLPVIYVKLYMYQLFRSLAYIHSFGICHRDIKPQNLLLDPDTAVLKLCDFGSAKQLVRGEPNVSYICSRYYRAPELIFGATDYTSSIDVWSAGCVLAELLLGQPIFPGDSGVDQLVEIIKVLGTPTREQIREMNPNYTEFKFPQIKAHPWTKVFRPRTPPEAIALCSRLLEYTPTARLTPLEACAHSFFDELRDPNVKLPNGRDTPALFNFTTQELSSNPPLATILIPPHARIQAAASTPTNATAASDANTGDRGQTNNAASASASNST
Sequence of GSK3α (GST-full length GSK3α) (P49840 whole entry): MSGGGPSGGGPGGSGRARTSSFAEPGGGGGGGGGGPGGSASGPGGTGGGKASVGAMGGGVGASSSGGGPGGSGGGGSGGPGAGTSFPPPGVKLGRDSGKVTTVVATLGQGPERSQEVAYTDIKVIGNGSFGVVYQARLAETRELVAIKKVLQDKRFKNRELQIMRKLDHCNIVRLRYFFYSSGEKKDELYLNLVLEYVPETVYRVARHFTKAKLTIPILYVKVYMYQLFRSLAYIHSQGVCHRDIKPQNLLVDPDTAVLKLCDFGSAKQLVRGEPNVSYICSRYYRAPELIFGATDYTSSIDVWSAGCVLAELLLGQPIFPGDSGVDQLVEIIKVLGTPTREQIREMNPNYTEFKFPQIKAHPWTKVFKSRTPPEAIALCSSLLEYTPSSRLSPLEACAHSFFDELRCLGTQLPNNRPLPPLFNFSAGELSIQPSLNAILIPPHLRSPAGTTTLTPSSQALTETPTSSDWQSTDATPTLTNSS

Cn1ccc(S(=O)(=O)N2CC[C@]3(C2)C2=C(CC(C)(C)CC2=O)Nc2n[nH]cc23)n1 [Compound 943484]
IC50 [1, 3]: ≤ 100 nM
IC50 [1, 4]: 1000 to 5000 nM
IC50 [2, 5]: ≤ 100 nM
IC50 [2, 6]: 100 to 1000 nM

CC[C@]1(c2cccc(-c3cc(C)ncc3F)c2)C2=C(CC(C)(C)NC2=O)Nc2n[nH]c(C(F)(F)F)c21 [Compound 949644]
IC50 [1, 7]: 1000 to 5000 nM
IC50 [2, 8]: 100 to 1000 nM

CC[C@]1(c2cccc(-c3c(C)nn(C)c3C)c2)C2=C(CC(C)(C)NC2=O)Nc2n[nH]cc21 [Compound 947408]
IC50 [1, 9]: ≤ 100 nM
IC50 [1, 10]: 1000 to 5000 nM
IC50 [2, 11]: ≤ 100 nM
IC50 [2, 12]: 100 to 1000 nM

CC[C@@]1(c2cccc(C(F)(F)F)c2)C2=C(CCN(c3ccsc3)C2=O)Nc2n[nH]cc21 [Compound 952630]
IC50 [1, 7]: 100 to 1000 nM
IC50 [2, 8]: ≤ 100 nM

CCC1(c2ccccc2)C2=C(CC(C)(C(F)(F)F)CC2=O)Nc2n[nH]cc21 (stereo not shown) [Compound 816796]
IC50 [1, 9]: 1000 to 5000 nM
IC50 [2, 11]: 100 to 1000 nM

CCC1(c2cccc(-c3cn(C)nc3C)c2)C2=C(Nc3n[nH]cc31)C(F)C(C)(C)CC2=O (single isomer, unassigned) [Compound 947653, 4-(3-(1,3-dimethyl-1H-pyrazol-4-yl)phenyl)-4-ethyl-8-fluoro-7,7-dimethyl-2,4,6,7,8,9-hexahydro-5H-pyrazolo[3,4-b]quinolin-5-one]
IC50 [1, 3]: 100 to 1000 nM
IC50 [2, 5]: ≤ 100 nM

CC[C@]1(c2cccc(S(=O)(=O)C3CC3)c2)C2=C(CC(C)(C)N(C)C2=O)Nc2n[nH]cc21 [Compound 949177]
IC50 [1, 9]: ≤ 100 nM
IC50 [1, 10]: 1000 to 5000 nM
IC50 [2, 11]: ≤ 100 nM
IC50 [2, 12]: 100 to 1000 nM

COCCn1cc(S(=O)(=O)N2CCC3(CC2)C2=C(CC(C)(C)CC2=O)Nc2n[nH]cc23)cn1 [Compound 947477]
IC50 [1, 3]: ≤ 100 nM
IC50 [2, 5]: ≤ 100 nM

CCC1(c2cccc(-c3cncn3C)c2)C2=C(CC(C)(C)NC2=O)Nc2n[nH]c(C(F)(F)F)c21 (stereo not shown) [Compound 949003]
IC50 [1, 9]: 100 to 1000 nM
IC50 [2, 11]: 100 to 1000 nM

CCC1(c2cccc(C(F)(F)F)c2)C2=C(CCN(c3cccc(C)c3)C2=O)Nc2n[nH]cc21 (stereo not shown) [Compound 949040]
IC50 [1, 9]: 100 to 1000 nM
IC50 [2, 11]: ≤ 100 nM

CC1(C)CC(=O)C2=C(C1)Nc1n[nH]cc1[C@]21CCC[C@H](C#N)C1 [Compound 946078]
IC50 [1, 7]: > 5000 nM
IC50 [2, 8]: 1000 to 5000 nM

CC[C@]1(c2cccc(C(F)(F)F)c2)C2=C(Nc3n[nH]cc31)[C@H](C)N(Cc1ccccc1)C2=O [Compound 930333]
IC50 [1, 13]: > 5000 nM
IC50 [2, 14]: > 5000 nM

CC[C@]1(c2cccc(Oc3ncccn3)c2)C2=C(CC(C)(C)NC2=O)Nc2n[nH]c(C(F)(F)F)c21 [Compound 951607]
IC50 [1, 7]: ≤ 100 nM
IC50 [1, 10]: 100 to 1000 nM
IC50 [2, 8]: ≤ 100 nM
IC50 [2, 12]: ≤ 100 nM

CC1(C(F)(F)F)CC(=O)C2=C(C1)Nc1n[nH]cc1C21CCOCC1 (stereo not shown) [Compound 901458]
IC50 [1, 3]: 100 to 1000 nM
IC50 [2, 5]: 100 to 1000 nM

CC[C@@]1(c2cccc(N(C)c3ncccn3)c2)C2=C(CC(C)(C)NC2=O)Nc2n[nH]c(Cl)c21 [Compound 951618]
IC50 [1, 7]: 1000 to 5000 nM
IC50 [2, 8]: 100 to 1000 nM

CCc1ncc(S(=O)(=O)N2CCC3(CC2)C2=C(CC(C)(C)NC2=O)Nc2n[nH]cc23)s1 [Compound 947837]
IC50 [1, 9]: ≤ 100 nM
IC50 [1, 13]: ≤ 100 nM
IC50 [2, 11]: ≤ 100 nM
IC50 [2, 14]: ≤ 100 nM

CC1(C)CC(=O)C2=C(C1)Nc1n[nH]cc1C21CN(c2cccnc2)C1 [Compound 947813]
IC50 [1, 7]: 1000 to 5000 nM
IC50 [2, 8]: 1000 to 5000 nM

CCC1(c2cccc(S(=O)(=O)C3CCCCC3)c2)C2=C(CC(C)(C)CC2=O)Nc2n[nH]cc21 (stereo not shown) [Compound 943547]
IC50 [1, 3]: > 5000 nM
IC50 [2, 5]: 1000 to 5000 nM

CCC1(c2cccc(-c3cn(C)nc3C)c2)C2=C(CC(C)(C)C2=O)Nc2n[nH]cc21 (stereo not shown) [Compound 951702]
IC50 [1, 7]: 100 to 1000 nM
IC50 [1, 10]: > 5000 nM
IC50 [2, 8]: ≤ 100 nM
IC50 [2, 12]: 100 to 1000 nM

Cc1ccc(S(=O)(=O)N2CCC3(CC2)C2=C(CC(C)(C)CC2=O)Nc2n[nH]cc23)cn1 [Compound 947482]
IC50 [1, 3]: ≤ 100 nM
IC50 [2, 5]: ≤ 100 nM

CCC1(c2cccc(CS(C)(=O)=O)c2)C2=C(CC(C)(C)CC2=O)Nc2n[nH]cc21 (stereo not shown) [Compound 945601]
IC50 [1, 3]: 100 to 1000 nM
IC50 [2, 5]: 100 to 1000 nM

CC1(C)CC(=O)C2=C(C1)Nc1n[nH]cc1C21CCCN(CC(F)(F)F)CC1 (stereo not shown) [Compound 889576]
IC50 [1, 3]: 100 to 1000 nM
IC50 [2, 5]: 100 to 1000 nM

CCC1(c2cccc(C(F)(F)F)c2)C2=C(CCN(c3ccsc3)C2=O)Nc2n[nH]cc21 (stereo not shown) [Compound 950776]
IC50 [1, 7]: 100 to 1000 nM
IC50 [2, 8]: ≤ 100 nM

CC[C@]1(c2cccc(-c3cc(C)ncc3OC)c2)C2=C(CC(C)(C)CC2=O)Nc2n[nH]cc21 [Compound 945995]
IC50 [1, 3]: ≤ 100 nM
IC50 [1, 10]: 1000 to 5000 nM
IC50 [2, 5]: ≤ 100 nM
IC50 [2, 12]: 100 to 1000 nM

CC[C@]1(c2cccc(-c3ccnn3C)c2)C2=C(Nc3n[nH]cc31)[C@H](F)C(C)(C)CC2=O [Compound 957508]
IC50 [1, 3]: > 5000 nM
IC50 [2, 5]: > 5000 nM

CC1(C)CC(=O)C2=C(C1)Nc1n[nH]cc1C21CC(C(F)(F)F)C1 (stereo not shown) [Compound 874527]
IC50 [1, 3]: 100 to 1000 nM
IC50 [2, 5]: ≤ 100 nM

CC1(C)CC(=O)C2=C(C1)Nc1n[nH]cc1C21CCN(S(=O)(=O)c2cccc(Cl)c2Cl)CC1 [Compound 947249]
IC50 [1, 3]: ≤ 100 nM
IC50 [2, 5]: ≤ 100 nM

CC[C@]1(c2cccc(C(F)(F)F)c2)C2=C(CCN(c3ccccc3)C2=O)Nc2n[nH]cc21 [Compound 929475]
IC50 [1, 13]: > 5000 nM
IC50 [2, 14]: > 5000 nM

CC[C@@]1(c2cccc(-c3cn(C)nc3C(C)C)c2)C2=C(CC(C)(C)CC2=O)Nc2n[nH]c(C)c21 [Compound 913029]
IC50 [1, 7]: ≤ 100 nM
IC50 [2, 8]: ≤ 100 nM

CCC1(c2cccc(-c3ccnc4c3CCC4)c2)C2=C(CC(C)(C)NC2=O)Nc2n[nH]cc21 (stereo not shown) [Compound 948308]
IC50 [1, 9]: > 5000 nM
IC50 [2, 11]: > 5000 nM

CC1(C)CC(=O)C2=C(C1)Nc1n[nH]cc1C21COC2(CN(C(=O)C3(F)CCCC3)C2)C1 (stereo not shown) [Compound 947277]
IC50 [1, 13]: ≤ 100 nM
IC50 [2, 14]: ≤ 100 nM

CC1(C)CC(=O)C2=C(Nc3n[nH]cc3C23CCN(S(=O)(=O)c2cccc(C(F)(F)F)c2)CC3)[C@H]1F [Compound 951713]
IC50 [1, 3]: ≤ 100 nM
IC50 [1, 4]: 1000 to 5000 nM
IC50 [2, 5]: ≤ 100 nM
IC50 [2, 6]: 100 to 1000 nM

CC[C@]1(c2cccc(N3CCCCC3)c2)C2=C(CC(C)(C)CC2=O)Nc2n[nH]c(C(F)(F)F)c21 [Compound 816800]
IC50 [1, 9]: ≤ 100 nM
IC50 [1, 10]: ≤ 100 nM
IC50 [2, 11]: ≤ 100 nM
IC50 [2, 12]: ≤ 100 nM

Cc1cc(C)cc(C(=O)N2CC3(C2)CC2(CO3)C3=C(CC(C)(C)CC3=O)Nc3n[nH]cc32)c1 (stereo not shown) [Compound 948222]
IC50 [1, 13]: 1000 to 5000 nM
IC50 [2, 14]: 100 to 1000 nM

CCC1(c2cccc(N3CCCCC3)c2)C2=C(CC(C)(C)CC2=O)Nc2n[nH]cc21 (stereo not shown) [Compound 801320]
IC50 [1, 9]: 100 to 1000 nM
IC50 [2, 11]: 100 to 1000 nM

CC[C@]1(c2cccc(N3CCOCC3)c2)C2=C(CC(C)(C)NC2=O)Nc2n[nH]c(C(F)(F)F)c21 [Compound 949000]
IC50 [1, 9]: 100 to 1000 nM
IC50 [2, 11]: 100 to 1000 nM

CC[C@]1(c2cccc(C(F)(F)F)c2)C2=C(C[C@@H](C(C)(C)C)NC2=O)Nc2n[nH]cc21 [Compound 945922]
IC50 [1, 13]: 100 to 1000 nM
IC50 [2, 14]: ≤ 100 nM

CCC1(c2cccc(S(C)(=O)=O)c2)C2=C(CC(C)(C)CC2=O)Nc2n[nH]cc21 (stereo not shown) [Compound 819561]
IC50 [1, 9]: ≤ 100 nM
IC50 [2, 11]: ≤ 100 nM
